Test results as given in paper PMC6982547 (Leukemia & lymphoma, 2019).
Read-outs that look alike come from different tables or passages of the source.

Experiments:
[1] = Alisertib pharmacokinetics in plasma; format: in vivo, human; conditions: Schedule I, vorinostat 200 mg, alisertib 30 mg, day 7, N=1
[2] = tested on: patients with relapsed/refractory lymphoid malignancies; experiment: Phase 1 safety and tolerability: DLTs, MTD/RP2D, adverse events; format: in vivo, human
[3] = cited from earlier work
[4] = human, in vivo
clinical = conditions: human, in vivo; for AUC: AUC0-tau; for half-life: t½
follicular lymphoma = conditions: single agent, two phase 2 studies; cited from earlier work
[5] = previously published data; cited from earlier work

COc1cc(Nc2ncc3c(n2)-c2ccc(Cl)cc2C(c2c(F)cccc2OC)=NC3)ccc1C(=O)O [Alisertib]
Cl/F [1]: 1.68 L/h | MTD of the combination, alisertib dose ([2]; BID, with 200 mg vorinostat BID, intermittent dosing Schedule II): 20 mg | recommended phase 2 dose (RP2D) of the combination, alisertib dose ([2]; bid, intermittent schedule): 20 mg | half-life ([3]; previous reports): 14.9 h | apparent clearance ([3]; previously published population estimate): 4.25 L/h

O=C(CCCCCCC(=O)Nc1ccccc1)NO [Vorinostat]
t½ ([4]; 30 mg): 2.38 (0.97) h | AUC0-tau ([4]; 200 mg): 1.10 (0.44) μg/mL•h | AUC (clinical; 20 mg): 1030 ng·h/mL | Cmax (clinical; 20 mg): 318 ng/mL | Tmax (clinical; 20 mg): 2.25 h | half-life (clinical; 20 mg): 2.16 h | AUC (clinical; 30 mg): 1850 ng·h/mL | Cmax (clinical; 30 mg): 560 ng/mL | Tmax (clinical; 30 mg): 2.42 h | AUC (clinical; 40 mg): 956 ng·h/mL | Cmax (clinical; 40 mg): 335 ng/mL | Tmax (clinical; 40 mg): 0.98 h | half-life (clinical; 40 mg): 2.31 h | AUC (clinical; 200 mg): 1030 ng·h/mL | Cmax (clinical; 200 mg): 391 ng/mL | half-life (clinical; 200 mg): 2.19 h | half-life (clinical): 2.3 h | overall response rate (follicular lymphoma): 47-49% | clearance [5]: 271 L/h | MTD of the combination, vorinostat dose ([2]; BID, with 20 mg alisertib BID, intermittent dosing Schedule II): 200 mg | recommended phase 2 dose (RP2D) of the combination, vorinostat dose ([2]; bid, intermittent schedule): 200 mg
